By IC50 is commonly meant the midpoint of a concentration-inhibition curve.

Experiment [1] concerns BH4 levels in SK-N-BE (2) cells. The experiment in a line: SKN-N-BE (2) cellular assay, BH4 levels by LC-MS. In kind it is cell-based. The conditions noted are these: Homo sapiens, SKNBE2, read-out: SK-N-BE(2) IC50, SK-N-BE (2) cells, BH4 levels by LC-MS.
Protocol: SKN-N-BE(2) Cellular Assay: SK-N-BE (2) cells were seeded in sterile, 96-well plates and incubated for 12-24 hours at 37° C. with 5% CO2 supply. Media was removed and fresh DMEM/F-12 media (containing Glutamine & Pen/Strep but no FBS) was added. Compounds (at different concentrations) were added to different wells. The plates were then incubated for 6-48 hours at 37° C. with 5% CO2 supply. Plates were then centrifuged and the supernatant was removed. The plates were then optionally washed once with PBS. They were then sealed and stored at −80° C. or immediately used. The cells were lysed and the level of BH4 was assessed by LC-MS.
Compounds were assayed for SPR inhibitory activity using a SKN-N-BE (2) cellular assay according to the following procedure. SK-N-BE (2) cells were seeded in sterile, 96-well plates and incubated for 12-24 hours at 37° C. with 5% CO2 supply. Media was removed and fresh DMEM/F-12 media (containing Glutamine & Pen/Strep but no FBS) was added. Compounds (at different concentrations) were added to different wells. The plates were then incubated for 6-48 hours at 37° C. with 5% CO2 supply. Plates were then centrifuged and the supernatant was removed. The plates were then optionally washed once with PBS. They were then sealed and stored at −80° C. or immediately used in the next step. The cells were lysed and the levels of BH4 were assessed by LC-MS.
The target of experiment [2] is SNAP-hSPR (sepiapterin reductase, SPR) (Homo sapiens, UniProt P35270). As to the kind of experiment: biochemical. It counts as binding. The settings on record: terbium labelled SNAP-hSPR / SSZ labelled SNAP-EGFP; read-out: hTR-FRET IC50.
Chain of SNAP-hSPR (sepiapterin reductase, SPR) (P35270 whole entry): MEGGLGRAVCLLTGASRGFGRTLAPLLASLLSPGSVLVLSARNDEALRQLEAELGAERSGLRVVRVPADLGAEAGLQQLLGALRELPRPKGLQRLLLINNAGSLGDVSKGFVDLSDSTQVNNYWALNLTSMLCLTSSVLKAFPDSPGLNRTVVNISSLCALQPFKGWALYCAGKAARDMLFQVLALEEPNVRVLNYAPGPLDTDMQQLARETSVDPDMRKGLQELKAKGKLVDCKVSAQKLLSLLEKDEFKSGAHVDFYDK

As to `Cc1ccc(C2(C)CN(C(=O)c3cnn(-c4nc5c(c(=O)[nH]4)CCC5)c3C)CCO2)cc1` (stereo not drawn) [Q-0501], the half-maximal inhibitory concentration (IC50) came out at 200 nM in experiment [1] and 9 nM in experiment [2].

For `Cc1c(C(=O)N(CCc2ccccc2)CC(O)C(F)(F)F)cnn1-c1nc2c(c(=O)[nH]1)CCC2` (stereo not drawn) [Q-0502], the IC50 in experiment [1] stood at 400 nM; in experiment [2] it was 20 nM.

`Cc1c(C(=O)N2CCC(S(=O)(=O)c3ccccc3)CC2)cnn1-c1nc2c(c(=O)[nH]1)CCC2` [Q-0504]: the IC50 in experiment [1] is 58 nM; in experiment [2] it was 4 nM.

In the case of `Cc1c(C(=O)N2CCCCC2c2cccnc2)cnn1-c1nc2c(c(=O)[nH]1)CCC2` (stereo not drawn) [Q-0505], the values for the concentration for half-maximal inhibition (IC50) in experiment [1] and in experiment [2] were 100 nM and 4 nM, respectively.

As for `Cc1c(C(=O)N(C)Cc2ccc3ncccc3c2)cnn1-c1nc2c(c(=O)[nH]1)CCC2` [Q-0506], the IC50 was 200 nM in experiment [1] and 3 nM in experiment [2].

Regarding `Cc1c(C(=O)N2CCN(C(=O)OCc3ccccc3)C(C)C2)cnn1-c1nc2c(c(=O)[nH]1)CCC2` (stereo not drawn) [Q-0507], the IC50 in experiment [1] worked out at 200 nM; in experiment [2], 10 nM.

`O=C(c1ccnc(-c2nc3c(c(=O)[nH]2)CCC3)c1)N1CCC(C(F)(F)F)CC1` [Q-0508]: the IC50 in experiment [1] was 2000 nM; in experiment [2], 30 nM.

Regarding `Cc1c(C(=O)N2C3CCC2CC(O)(c2ccccc2)C3)cnn1-c1nc2c(c(=O)[nH]1)CCC2` (stereo not drawn) [Q-0509], the half-inhibitory concentration (IC50) in experiment [1] was determined as 68 nM; in experiment [2], 3 nM.

As for `Cc1c(C(=O)N2CCC(c3ccccc3)C2)cnn1-c1nc2c(c(=O)[nH]1)CCC2` (stereo not drawn) [Q-0510], the IC50 in experiment [1] was 100 nM; in experiment [2] it was 5 nM.

For the compound `O=C(c1cnn(-c2cc3ccsc3c(=O)[nH]2)c1)N1CCC(C(F)(F)F)CC1` [Q-0511, 5-{4-[4-(trifluoromethyl)piperidine-1-carbonyl]-1H-pyrazol-1-yl}-6H,7H-thieno[2,3-c]pyridin-7-one], the 50% inhibitory concentration (IC50) in experiment [1] was 300 nM; in experiment [2], 3 nM.

In the case of `Cc1c(C(=O)N2C3CCC2CC(c2ccccc2)C3)cnn1-c1nc2c(c(=O)[nH]1)CCC2` (stereo not drawn) [Q-0513], the IC50 was 47 nM in experiment [1] and 10 nM in experiment [2].

`COC1(c2ccccc2)CCN(C(=O)c2cnn(-c3nc4c(c(=O)[nH]3)CCC4)c2C)CC1` [Q-0514]: the 50% inhibitory concentration (IC50) in experiment [1] turned out to be 57 nM; in experiment [2], 7 nM.

Turning to `O=C(c1ccnc(-c2nc3ccsc3c(=O)[nH]2)c1)N1CCC(C(F)(F)F)CC1` [Q-0515], the 50% inhibitory concentration (IC50) in experiment [1] turned out to be 5300 nM; in experiment [2] it was 40 nM.

As for `O=C(c1cnn(-c2nc3ccsc3c(=O)[nH]2)c1)N1CCC(C(F)(F)F)CC1` [Q-0517], the IC50 in experiment [1] is 100 nM; in experiment [2], 2 nM.

Turning to `COC1(C)CCN(C(=O)c2cnn(-c3nc4c(c(=O)[nH]3)CCC4)c2C)CC1` [Q-0520], the figures for the 50% inhibitory concentration (IC50) in experiment [1] and in experiment [2] were 200 nM and 3 nM, respectively.

Consider `Cc1c(C(=O)N2CCC(OCC(F)(F)F)CC2)cnn1-c1nc2c(c(=O)[nH]1)CCC2` [Q-0521], for which the IC50 in experiment [1] worked out at 100 nM; in experiment [2], 8 nM.

With `O=c1[nH]c(-c2cc(S(=O)(=O)N3CCC(C(F)(F)F)CC3)ccn2)nc2c1CCC2` [Q-0522], the IC50 in experiment [1] was 10000 nM; in experiment [2] it was 300 nM.

For the compound `N#CC1(c2ccccc2)CCN(C(=O)c2cnn(-c3nc4ccsc4c(=O)[nH]3)c2)CC1` [Q-0523], the values for the IC50 in experiment [1] and in experiment [2] were 100 nM and 20 nM, respectively.

On to `O=C(c1cnn(-c2nc3ccsc3c(=O)[nH]2)c1)N1CCC(S(=O)(=O)c2ccccc2)CC1` [Q-0524], for which the figures for the half-maximal inhibitory concentration (IC50) in experiment [1] and in experiment [2] were 1100 nM and 4 nM, respectively.

For `O=C(c1cnn(-c2nc3c(c(=O)[nH]2)CCC3)c1)N1CCC(C(F)(F)F)CC1` [Q-0526, 2-{4-[4-(trifluoromethyl)piperidine-1-carbonyl]-1H-pyrazol-1-yl}-3H,4H,5H,6H,7H-cyclopenta[d]pyrimidin-4-one], the half-maximal inhibitory concentration (IC50) stood at 28 nM in experiment [1] and 3 nM in experiment [2].

Regarding `O=C(c1cnn(-c2nc3ccsc3c(=O)[nH]2)c1)N1CCC(c2c[nH]c3ccccc23)CC1` [Q-0527], the results for the 50% inhibitory concentration (IC50) in experiment [1] and in experiment [2] were 45 nM and 30 nM, respectively.

The values are drawn from US9963462B2 (priority 2015, dated 2018).
